Measurements taken from US20200255492A1, “LEPTIN PEPTIDES AND THEIR USE FOR TREATING NEUROLOGICAL DISORDERS” (UNIVERSITY OF DUNDEE, priority 2017, published 2020).

Columns and labels:
STAT3 = assay: ELISA ratio of phospho-STAT3 to pan-STAT3; format: cell-based, human; conditions: 1 nM; 3 h
Experimental: (§1) The human neuroblastoma cell line, SH-SY5Y (ECACC, UK) was maintained in Dulbecco's Modified Eagle Medium supplemented with glucose ([…]) and 10% (v/v) cosmic calf serum (Fisher Scientific, UK) at 37° C. in a humidified atmosphere of 5% CO2, 95% air and allowed to reach 70-80% confluence before seeding. Cells (passage 10-18) were plated at 10 000 cells per well in 96 well tissue culture plates (Nunc, VWR, UK) and at a density of 2×10^5 cells in 35 mm dishes for protein extraction. To induce differentiation, cells were cultured in DMEM supplemented with glucose ([…]), 1% (v/v) cosmic calf serum and 10 μM retinoic acid for 5 days. Thereafter they were incubated in DMEM supplemented with glucose ([…]), serum replacement 2 (2%; Sigma, UK) and 18 μM 5-fluorodeoxyuridine to inhibit proliferation of undifferentiated cells. The 50% of the medium was changed every 2-3 days and pharmacological treatment was carried out 7 days after switching to this medium. Reagents used were (from Sigma UK unless stated) 0.1-10 nM human leptin and leptin (116-130); 0.1-10 nM leptin (22-56; Bachem; Switzerland); 10 nM leptin (116-121) leptin (117-122), leptin (124-129) or leptin (125-130; all Severn Biotech, UK); 5 μM copper chloride; […], 5 μM WP1066 or 50 nM wortmannin. […]

Akt = assay: ELISA ratio of phospho-Akt to pan-Akt; format: cell-based, human; conditions: 1 nM; 3 h
Experimental: as §1

mitochondria = assay: MitoRed analysis of mitochondrial morphology after 6-OHDA (cellular Parkinson's Disease model); format: cell-based; conditions: 0.1 nM plus 100 μM 6-OHDA; 1 hour
Experimental: Cultures were established on 3 separate occasions in quadruplicate and stained with MitoRED to identify mitochondria after 1 hour of treatment. Statistical significance relative to untreated control is denoted with ** where P<0.01 and *** where P<0.001. Representative images of 100 μM 6-OHDA-treated MitoRED stained cultures (C) and 100 μM 6-OHDA and leptin116-130 co-treated MitoRED stained cultures are shown. Scale bar represents […].
The human neuroblastoma cell line, SH-SY5Y (ECACC, UK) was maintained in Dulbecco's Modified Eagle Medium supplemented with glucose ([…]) and 10% (v/v) cosmic calf serum (Fisher Scientific, UK) at 37° C. in a humidified atmosphere of 5% CO2, 95% air and allowed to reach 70-80% confluence before seeding. Cells (passage 10-18) were plated at 2×10^5 cells on 13 mm borosilicate class coverslips or at 10 000 cells per well in 96 well tissue culture plates (Nunc, VWR, UK) prior to treatment. Reagents used were (from Sigma UK unless stated) 1 nM human leptin, leptin (116-121), leptin (117-122) and leptin (117-125); 0.0001-1 nm murine leptin fragments leptin (116-121), leptin (117-122) and leptin (116-130); 100 μM 6-hydroxydopamine; 10 μM CuCl2; […] Aβ1-42.
Cells were treated with pre-warmed cell culture medium containing 1 μM MitoRed ((9-[2-(4′-Methylcoumarin-7′-oxycarbonyl)phenyl]-3,6-bis(diethylamino)xanthylium chloride) and returned to the incubator for 45 minutes. Following fixation in NBF for 15 minutes, cells were washed 3 times in PBS. Coverslips were mounted in fluorescence mountant onto microscope slides and imaged on the Zeiss Axio MR2 microscope. The mean mitochondrial area and index of fragmentation (number of mitochondria: total area of mitochondrial material) were calculated using Fiji.

[1] = Samson et al. 1996; cited from earlier work

| Substance | ratio of phosphorylated STAT3 to pan STAT3 (STAT3) | ratio of phosphorylated Akt to pan Akt (Akt) | mitochondrial clumping (fragmentation index) with 6-OHDA (mitochondria) | mitochondrial swelling (mean mitochondrial area) with 6-OHDA (mitochondria) | food intake [1] |
| --- | --- | --- | --- | --- | --- |
| SCSLPQTSGLQKPES (listed as Mus musculus) [leptin (116-130)] | increased markedly | an increase in the ratio of phosphorylated Akt to pan Akt | prevents 6-OHDA-associated mitochondrial clumping | prevents 6-OHDA-associated mitochondrial swelling |  |
| leptin (22-56): leptin fragment amino acids 22-56 (Bachem), comparison fragment (VPIQKVQDDTKTLIKTIVTRINDISHTQSVSSKQK; UniProt P41159 22-56, looked up, fragment) [reference compound] |  |  |  |  | significant reductions in food intake |
